How the values were obtained:
[1] = tested on: Pyricularia oryzae; type: in vivo; details: rice plants, preventive spray, dose 500 ppm, grading 6 days after contamination
[2] = Measurement of logP values by HPLC on reversed phase columns (EEC directive 79/831 Annex V.A8); type: physicochemical; details: for LogP^[a] / LogP[a]: method [a]; for LogP[a]: HPLC on reversed phase columns; for chromatographic logP: pH 2.7
[3] = tested on: Septoria tritici; test: In vivo preventive test on Septoria tritici (leaf spot on wheat); details: wheat plants, preventive spray, dose 100 ppm, grading 24 days after contamination
Protocol: Wheat plants (“Scipion” variety), sown in starter cups on a 50/50 peat soil-pozzolana substrate and grown at 22° C., are treated at the 1-leaf stage (10 cm height) by spraying with the active ingredient prepared as described above. Plants, used as controls, are treated with the mixture of acetone/tween/DMSO/water not containing the active material. After 24 hours, the plants are contaminated by spraying the leaves with an aqueous suspension of cryopreserved Septoria tritici spores (500 000 spores per ml). […] Grading (% of efficacy) is carried out 24 days after the contamination, in comparison with the control plants.

[4] = tested on: Uromyces appendiculatus; test: In vivo preventive test on Uromyces appendiculatus (bean rust); details: bean plants, preventive spray, dose 100 ppm, grading 11 days after contamination
Protocol: Plants, used as controls, are treated with the mixture of acetone/tween/DMSO/water not containing the active material. After 24 hours, the plants are contaminated by spraying the leaves with an aqueous suspension of Uromyces appendiculatus spores (150 000 spores per ml). […] Grading (% of efficacy) is carried out 11 days after the contamination, in comparison with the control plants.

[5] = tested on: Pyrenophora teres; test: In vivo preventive test on Pyrenophora teres (net blotch on barley); details: barley plants, preventive spray, dose 100 ppm, grading 14 days after contamination
Protocol: Barley plants (“Plaisant” variety), sown in starter cups on a 50/50 peat soil-pozzolana substrate and grown at 22° C., are treated at the 1-leaf stage (10 cm height) by spraying with the active ingredient prepared as described above. Plants, used as controls, are treated with the mixture of acetone/tween/DMSO/water not containing the active material. After 24 hours, the plants are contaminated by spraying the leaves with an aqueous suspension of Pyrenophorateres spores (12 000 spores per ml). The spores are collected from a 12-day-old culture. […] Grading (% of efficacy) is carried out 14 days after the contamination, in comparison with the control plants.

[6] = tested on: Phakopsora pachyrhizi; test: In vivo preventive test on Phakopsora pachyrhizi (soybeans); details: soybean plants, preventive spray, dose 10 ppm, evaluated 7 days after inoculation
[7] = tested on: Botrytis cinerea; test: In vivo preventive test on Botrytis cinerea (grey mould); details: gherkin plants, preventive spray, dose 100 ppm, grading 4 to 5 days after contamination
Protocol: Gherkin plants (“Vert petit de Paris” variety), sown in starter cups on a 50/50 peat soil-pozzolana substrate and grown at 24° C., are treated at the Z11 cotyledon stage by spraying with the active ingredient prepared as described above. Plants, used as controls, are treated with the mixture of acetone/tween/DMSO/water not containing the active material. After 24 hours, the plants are contaminated by spraying the cotyledons with an aqueous suspension of cryopreserved Botrytis cinerea spores (50 000 spores per ml). The spores are suspended in a nutrient solution composed of 10 g/L of PDB, 50 g/L of D-Fructose, 2 g/L of NH4NO3 and 1 g/L of KH2PO4. […] Grading (% of efficacy) is carried out 4 to 5 days after the contamination, in comparison with the control plants.

[8] = tested on: Alternaria brassicae; test: In vivo preventive test on Alternaria brassicae (leaf spot on radish); details: radish plants, preventive spray, dose 100 ppm, grading 6 days after contamination
Protocol: Radish plants (“Pernod Clair” variety), sown in starter cups on a 50/50 peat soil-pozzolana substrate and grown at 17° C., are treated at the cotyledon stage by spraying with the active ingredient prepared as described above. Plants, used as controls, are treated with the mixture of acetone/tween/DMSO/water not containing the active material. After 24 hours, the plants are contaminated by spraying the cotyledons with an aqueous suspension of Alternaria brassicae spores (50 000 spores per ml). The spores are collected from a 15-day-old culture. The contaminated radish plants are incubated at 20° C. and at 100% relative humidity. Grading (% of efficacy) is carried out 6 days after the contamination, in comparison with the control plants.

[9] = tested on: Sphaerotheca fuliginea; test: In vivo preventive test on Sphaerotheca fuliginea (powdery mildew on cucurbits); details: gherkin plants, preventive spray, dose 100 ppm, grading 12 days after contamination
Protocol: Gherkin plants (“Vert petit de Paris” variety), sown in starter cups on a 50/50 peat soil-pozzolana substrate and grown at 24° C., are treated at the Z11 cotyledon stage by spraying with the active ingredient prepared as described above. Plants, used as controls, are treated with the mixture of acetone/tween/DMSO/water not containing the active material. After 24 hours, the plants are contaminated by spraying the cotyledons with an aqueous suspension of Sphaerotheca fuliginea spores (100 000 spores per ml). The spores are collected from infected plants. […] Grading (% of efficacy) is carried out 12 days after the contamination, in comparison with the control plants.

Row | Compound | LogP^[a] [2] | other results
1 | Cc1nc(C(F)F)c(C(=O)Nc2cccc3c2CCCC3(C)C)s1 [Example 3] | 3.64^[a] | biological efficacy [1]: ≥ 90%
2 | CCCC1(C)CCCc2c(NC(=O)c3cn(C)nc3C(F)F)cccc21 (centres unmarked) [Example 94] | 4.08^[a] | biological efficacy [3]: ≥ 70%; biological efficacy [4]: ≥ 80%
3 | CC(C)C1CCCc2c(NC(=O)c3cn(C)nc3C(F)F)cccc21 (centres unmarked) [Example 98] | – | biological efficacy [5]: ≥ 90%; biological efficacy [6]: ≥ 70%; biological efficacy [7]: ≥ 90%; LogP[a] [2]: 3.73^[a]
4 | CC1(C)CCc2c(cccc2NC(=S)c2ccoc2C(F)F)C1 [Example 96] | – | LogP[a] [2]: 4.39^[a]; biological efficacy [8]: ≥ 70%
5 | CCCC1CCc2c(NC(=O)c3cn(C)nc3C(F)F)cccc2C1C (mixture of isomers) [Example 95] | – | biological efficacy [7]: ≥ 80%; LogP[a] [2]: 4.18^[a]
6 | Cc1nc(C(F)F)c(C(=S)Nc2cccc3c2CCC(C)(C)C3)s1 [Example 97, 4-(difluoromethyl)-N-(6,6-dimethyl-5,6,7,8-tetrahydronaphthalen-1-yl)-2-methyl-1,3-thiazole-5-carbothioamide] | – | biological efficacy [9]: ≥ 80%; chromatographic logP [2]: 4.16
7 | Cn1cc(C(=O)Nc2cccc3c2CCCC3(C)C)c(C(F)F)n1 [Example 4] | 3.26^[a] | –
8 | CON=C1CCCc2c(NC(=O)C3=C(C(F)(F)F)OCCS3)cccc21 [Example 76] | 3.21^[a] | –
9 | CCON=C1CCCc2c(NC(=O)c3c(C)oc(C)c3C)cccc21 [Example 78] | 4.01^[a] | –
10 | CCc1nc(C)sc1C(=O)Nc1cccc2c1CCC(C)(C)C2 [Example 82] | 3.87^[a] | –
11 | CC1CCc2cccc(NC(=O)c3cn(C)nc3C(F)F)c2C1C (mixture of isomers) [Example 15] | 3.21^[a] | –
12 | C=C1c2cccc(NC(=O)c3cn(C)nc3C(F)F)c2CCC1(C)C [Example 10] | 3.48^[a] | –
13 | Cc1nn(C)c(C)c1C(=O)Nc1ccc(F)c2c1CCCC2(C)C [Example 90] | 2.98^[a] | –
14 | CCc1nc(C)sc1C(=O)Nc1cccc2c1CCC(C)C2C (mixture of isomers) [Example 36] | 3.87^[a] | –
15 | CCON=C1CCCc2c(NC(=O)c3sc(C)nc3C(F)F)cccc21 [Example 80] | 3.37^[a] | –
16 | Cc1nn(C)c(F)c1C(=O)Nc1cccc2c1CC(C)(C)CC2 [Example 26] | 3.31^[a] | –
17 | CON=C1CCCc2c(NC(=S)c3nccnc3C(F)(F)F)cccc21 [Example 88] | 3.39^[a] | –
18 | Cc1nc(C(F)F)c(C(=O)Nc2cccc3c2CCC(C)(C)C3)s1 [Example 46] | 3.81^[a] | –
19 | CC1c2c(cccc2NC(=O)c2cn(C)nc2C(F)F)CCC1(C)C (centres unmarked) [Example 34] | 3.51^[a] | –
20 | Cn1nc(C(F)(F)F)c(C(=O)Nc2cccc3c2CCC(C)(C)C3)c1F [Example 86] | 3.99^[a] | –
21 | CON=C1CCCc2c(NC(=O)c3c(C)nn(C)c3C)cccc21 [Example 37] | 2.17^[a] | –
22 | CCc1nc(C)sc1C(=O)Nc1ccc(F)c2c1CCCC2(C)C [Example 59] | 3.85^[a] | –
23 | Cc1nn(C)c(F)c1C(=O)Nc1cccc2c1CCCC2(C)C [Example 2, N-(5,5-dimethyl-5,6,7,8-tetrahydronaphthalen-1-yl)-5-fluoro-1,3-dimethyl-1H-pyrazole-4-carboxamide] | – | chromatographic logP [2]: 3.23
